Results: patent US20100105758A1 (Centre de Recherche Public de la Sante, priority 2006, published 2010)

Experiments:
[1] = system: THP-1-derived macrophages; assay: MMP-9 mRNA expression in THP-1-derived macrophages, quantitative PCR; format: cell-based; conditions: THP-1 cells, after 48 hours of differentiation
Protocol: FIG. 2. […] THP-1 cells were treated for 15 min with Ado and 10 μM EHNA or vehicle before differentiation to macrophages with 150 nM PMA for 48 hours. EHNA, which inhibits Ado deaminase, and DIP, which inhibits Ado transport, were used to enhance endogenous Ado concentration. Gelatinase activity was measured in cell-free conditioned medium by zymography and densitometry. A. A representative zymogram is shown. […] C. Time-course experiment.
Cell culture. All cell culture reagents were from Lonza (Verviers, Belgium) unless specified otherwise. Peripheral venous blood was obtained from healthy volunteers. Peripheral blood mononuclear cells were obtained by Ficoll gradient. Monocytes were purified by negative selection using the Monocyte Isolation Kit II (Myltenyi Biotec GmbH, Bergisch Gladbach, Germany). […] Macrophages were incubated for 15 minutes with Ado/EHNA (10 μmol/L) or vehicle, then LPS (100 ng/ml) or vehicle was added and cells were incubated for another 24 hours before harvesting. Cells from the monocyte-like line THP-1 (ATCC, LGC Promochem, Teddington, UK) were propagated at 37° C.-5% CO2 in RPMI 1640 medium supplemented with L-glutamine (2 mM), Penicillin (100 Units/ml), Streptomycin (100 μg/ml), non-essential amino acids solution (1 μM), sodium pyruvate (1 mM), and 10% heat-inactivated fetal calf serum (FCS) (Eurobio, Les Ulys, France). […]
(§1) Real time quantitative PCR.

[2] = system: primary human macrophages; assay: MMP-9 secretion by primary macrophages, ELISA in conditioned medium; format: cell-based; conditions: Ado and EHNA 10 μmol/L each, 15 min then 24 hours, with or without LPS 100 ng/ml
Protocol: FIG. 1. […] Cell culture. All cell culture reagents were from Lonza (Verviers, Belgium) unless specified otherwise. Peripheral venous blood was obtained from healthy volunteers. Peripheral blood mononuclear cells were obtained by Ficoll gradient. Monocytes were purified by negative selection using the Monocyte Isolation Kit II (Myltenyi Biotec GmbH, Bergisch Gladbach, Germany). […] Macrophages were incubated for 15 minutes with Ado/EHNA (10 μmol/L) or vehicle, then LPS (100 ng/ml) or vehicle was added and cells were incubated for another 24 hours before harvesting. Cells from the monocyte-like line THP-1 (ATCC, LGC Promochem, Teddington, UK) were propagated at 37° C.-5% CO2 in RPMI 1640 medium supplemented with L-glutamine (2 mM), Penicillin (100 Units/ml), Streptomycin (100 μg/ml), non-essential amino acids solution (1 μM), sodium pyruvate (1 mM), and 10% heat-inactivated fetal calf serum (FCS) (Eurobio, Les Ulys, France). For experiments, FCS in culture medium was reduced to 1%. Cells were treated for 15 min with EHNA vehicle (DMSO), Ado (0.01 to 100 μM), Ado receptors agonists (0.1 to 10 μM), EHNA (10 μM) or Dipyridamole (DIP) (10 μM). Cells were then differentiated into macrophages with 150 nM phorbol myristate actetate (PMA) for 24 hours. Macrophages were subsequently treated with LPS (1 to 1000 ng/ml), fMLP (10^−7 M) or H2O2 (10 mM) for another 24 hours. […] ELISA.

neutrophils = conditions: through A2a receptor; cited from earlier work
[3] = system: primary human macrophages; assay: MMP-9 mRNA expression in primary macrophages, quantitative PCR; format: cell-based; conditions: Ado and EHNA 10 μmol/L each, 24 hours
Protocol: Cell culture. All cell culture reagents were from Lonza (Verviers, Belgium) unless specified otherwise. Peripheral venous blood was obtained from healthy volunteers. Peripheral blood mononuclear cells were obtained by Ficoll gradient. Monocytes were purified by negative selection using the Monocyte Isolation Kit II (Myltenyi Biotec GmbH, Bergisch Gladbach, Germany). […] Macrophages were incubated for 15 minutes with Ado/EHNA (10 μmol/L) or vehicle, then LPS (100 ng/ml) or vehicle was added and cells were incubated for another 24 hours before harvesting. Cells from the monocyte-like line THP-1 (ATCC, LGC Promochem, Teddington, UK) were propagated at 37° C.-5% CO2 in RPMI 1640 medium supplemented with L-glutamine (2 mM), Penicillin (100 Units/ml), Streptomycin (100 μg/ml), non-essential amino acids solution (1 μM), sodium pyruvate (1 mM), and 10% heat-inactivated fetal calf serum (FCS) (Eurobio, Les Ulys, France). For experiments, FCS in culture medium was reduced to 1%. Cells were treated for 15 min with EHNA vehicle (DMSO), Ado (0.01 to 100 μM), Ado receptors agonists (0.1 to 10 μM), EHNA (10 μM) or Dipyridamole (DIP) (10 μM). Cells were then differentiated into macrophages with 150 nM phorbol myristate actetate (PMA) for 24 hours. Macrophages were subsequently treated with LPS (1 to 1000 ng/ml), fMLP (10^−7 M) or H2O2 (10 mM) for another 24 hours.
as §1

[4] = in combination with lidocaine or primary angioplasty; cited from earlier work
THP-1 monocytes = assay: Migration assay, modified Boyden chamber coated with gelatin B, MCP-1 gradient; format: cell-based; conditions: 10 μM Ado and 10 μM EHNA for 24 hours, MCP-1 10 ng/mL, migration after 24 hours
Protocol: Infiltration of monocytes/macrophages into the myocardium is a hallmark of ventricular remodelling post MI. Cell migration is facilitated by degradation of the ECM by MMP-9. We therefore tested whether the increase in MMP-9 secretion by Ado could improve monocytes migration along a gradient of MCP-1. For this purpose, the top of a modified Boyden chamber was coated with gelatin B and MCP-1 was added in the bottom compartment. Monocytes were treated with Ado before seeding on the microporous membrane of the chamber. […] This effect was inhibited by the synthetic MMP inhibitor GM6001 and the endogenous MMP-9 inhibitor TIMP-1 (FIG. 4).
FIG. 4. Ado increases monocytes migratory capacity. THP-1 monocytes were treated for 24 hours with 10 μM Ado and 10 μM EHNA or vehicle before seeding on the microporous membrane of a modified Boyden chamber pre-coated with gelatin B. 10 ng/mL MCP-1 was added in the bottom compartment. When specified, cells were pre-incubated with TIMP-1 (10 ng/mL) or GM6001 (10 nM or 1 μM) before seeding on the membrane. Cell migration was quantified by fluorescence after 24 hours. […] Results are mean±SD (n=5). * P<0.05 vs no Ado.
Migration assay. Migratory capacity of THP-1 monocytes was studied using a Transwell® system with polycarbonate microporous membranes (5 μm pore size, 24-well chamber, Costar, Lowell, USA). Membranes were coated with a 2% gelatin B solution and allowed to dry at room temperature for 2 hours. MCP-1 (10 ng/mL) was added in the bottom compartment. THP-1 monocytes were cultured in serum- and antibiotic-free medium with or without 10 μM Ado and 10 μM EHNA for 24 hours. Cells were pre-incubated for 30 min with GM 6001 (10 nM or 1 μM) or TIMP-1 (10 ng/mL) before seeding into the upper compartment at a concentration of 7.5×10^4 cells per well. After 24 hours, cells that migrated through the membrane were detached, lysed and stained by the CyQuant GR® dye (Invitrogen) for 15 min. Fluorescence was read with a POLARstar Optima (BMG LABTECH, Champigny-sur-Marne, France) microplate reader (Xex=492 nm, kem=520 nm).

## Nc1ncnc2c1ncn2[C@@H]1O[C@H](CO)[C@@H](O)[C@H]1O [adenosine]
[1]
  MMP-9 mRNA expression: more than two-fold increase
[2]
  MMP-9 secretion in cell supernatant as measured by ELISA: mild but significant increase
[2]; listed as Ado
  MMP-9 secretion in cell supernatant as measured by ELISA: significantly increased
neutrophils
  MMP-9 secretion by neutrophils: inhibits MMP-9 secretion
[3]
  MMP-9 mRNA expression: increased
[4]
  cardiac function of patients with MI: improved cardiac function
THP-1 monocytes
  cell migration through the gelatin layer: enhanced cell migration
